Laboratory results published in US20230085307A1, “PYRIDAZINONE COMPOUND AND HERBICIDE” (NISSAN CHEMICAL CORPORATION, priority 2019, published 2023).

Tests used:
barnyard grass [1] = test: Test Example 4: herbicidal effect by soil treatment (Table 19, symbol H); type: in vivo, barnyard grass (Echinochloa crus-galli); conditions: 320 g/ha
Procedure, shortened: (§1)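 Emulsion of test compound, water-diluted to predetermined amount, sprayed on soil after sowing (seed depth ~1.5 cm, sterilized diluvial soil). Greenhouse, 25–30° C. Effect graded at three weeks post-spray.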

lambsquarters = test: Test Example 4: herbicidal effect by soil treatment (Table 19, symbol O); type: in vivo, lambsquarters (Chenopodium album); conditions: 320 g/ha
Procedure, shortened: as §1

wild oat [2] = test: Test Example 4: herbicidal effect by soil treatment (Table 19, symbol I); type: in vivo, wild oat (Avena fatua); conditions: 320 g/ha
Procedure, shortened: as §1

Chinese sprangletop = test: Test Example 3: herbicidal effect by foliage application, Wagner pot (Table 18, symbol D); type: in vivo, chinese sprangletop (Leptochloa chinensis); conditions: 320 g/ha
Procedure, shortened: (§2)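 Plants were sown in alluvial soil held under 0.1–0.5 cm standing water and grown 14 days in a greenhouse at 25–30 °C. An emulsifiable formulation, water-diluted to the set dose, was then sprayed onto the foliage, and effects were scored three weeks later using previously defined criteria.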

barnyard grass [3] = test: Test Example 3: herbicidal effect by foliage application, Wagner pot (Table 18, symbol H); type: in vivo, barnyard grass (Echinochloa crus-galli); conditions: 320 g/ha
Procedure, shortened: as §2

velvetleaf [4] = test: Test Example 4: herbicidal effect by soil treatment (Table 19, symbol M); type: in vivo, velvetleaf (Abutilon theophrasti); conditions: 320 g/ha
Procedure, shortened: as §1

windgrass [5] = test: Test Example 4: herbicidal effect by soil treatment (Table 19, symbol L); type: in vivo, windgrass (Apera spica-venti); conditions: 320 g/ha
Procedure, shortened: as §1

blackgrass = test: Test Example 5: herbicidal effect by foliage application, plastic box (Table 20, symbol J); type: in vivo, blackgrass (Alopecurus myosuroides); conditions: foliage application, 320 g/ha, 3 weeks after application
Procedure, shortened: (§3)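 Post-emergence foliar test in sterilized diluvial soil. Compound applied as water-diluted emulsion at a predetermined rate to 14-day-old plants; evaluation at three weeks.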

late watergrass = test: Test Example 2: herbicidal activity, application during weed generation under submerged conditions (Table 17, symbol A); type: in vivo, late watergrass (Echinochloa oryzicola); conditions: AAH 320 g/ha; application during weed generation, submerged conditions
Procedure, shortened: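 Steps: fill Wagner pots with alluvial soil; add water to give 4 cm depth; sow the species mixed; grow under glass at 25–30° C.; at 1–2 leaves apply water-diluted emulsion formulation to the water surface at a fixed herbicide amount; score after 3 weeks.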

wild oat [6] = test: Test Example 5: herbicidal effect by foliage application, plastic box (Table 20, symbol I); type: in vivo, wild oat (Avena fatua); conditions: foliage application, 320 g/ha, 3 weeks after application
Procedure, shortened: as §3

velvetleaf [7] = test: Test Example 5: herbicidal effect by foliage application, plastic box (Table 20, symbol M); type: in vivo, velvetleaf (Abutilon theophrasti); conditions: foliage application, 320 g/ha, 3 weeks after application
Procedure, shortened: as §3

rice flat sedge = test: Test Example 3: herbicidal effect by foliage application, Wagner pot (Table 18, symbol E); type: in vivo, rice flat sedge (Cyperus iria); conditions: 320 g/ha
Procedure, shortened: as §2

green foxtail = test: Test Example 5: herbicidal effect by foliage application, plastic box (Table 20, symbol G); type: in vivo, green foxtail (Setaria viridis); conditions: foliage application, 320 g/ha, 3 weeks after application
Procedure, shortened: as §3

Japanese bulrush = test: Test Example 1: herbicidal activity, application before weed generation under submerged conditions (Table 16, symbol B); type: in vivo, Japanese bulrush (Schoenoplectus juncoides); conditions: 320 g/ha applied herbicide
Procedure, shortened: (§4)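 Submerged Wagner pots (alluvial soil, 4 cm water) sown with weed seeds and planted with 2.5-leaf rice seedlings; emulsifiable concentrate diluted in water applied to water surface on sowing day. Held in greenhouse at 25-30 °C; injury scored 0-5 by herbicidal rate after three weeks.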

windgrass [8] = test: Test Example 5: herbicidal effect by foliage application, plastic box (Table 20, symbol L); type: in vivo, windgrass (Apera spica-venti); conditions: foliage application, 320 g/ha, 3 weeks after application
Procedure, shortened: as §3

oval-leafed pondweed = test: Test Example 1: herbicidal activity, application before weed generation under submerged conditions (Table 16, symbol C); type: in vivo, oval-leafed pondweed (Monochoria vaginalis); conditions: 320 g/ha applied herbicide
Procedure, shortened: as §4

Compound | herbicidal effect rating, H: barnyard grass (barnyard grass [1]) | herbicidal effect rating, O: lambsquarters (lambsquarters) | herbicidal effect rating, I: wild oat (wild oat [2]) | herbicidal effect on D (Chinese sprangletop), rating 0-5 (Chinese sprangletop) | herbicidal effect on H (barnyard grass), rating 0-5 (barnyard grass [3]) | herbicidal effect rating, M: velvetleaf (velvetleaf [4]) | herbicidal effect rating, L: windgrass (windgrass [5]) | effect on blackgrass (J) (blackgrass) | herbicidal effect rating, A: late watergrass (late watergrass) | effect on wild oat (I) (wild oat [6]) | effect on velvetleaf (M) (velvetleaf [7]) | herbicidal effect on E (rice flat sedge), rating 0-5 (rice flat sedge) | effect on green foxtail (G) (green foxtail) | Herbicidal effect on B: Japanese bulrush (grade 0-5) (Japanese bulrush) | effect on windgrass (L) (windgrass [8]) | Herbicidal effect on C: oval-leafed pondweed (grade 0-5) (oval-leafed pondweed)
CCCOc1ccc(-c2sc3ccc(F)cc3c2-c2c(O)c(C)nn(C)c2=O)cc1 [2-032] | 2 (Herbicidal rate of 20% or more and less than 40%) | 5 (Herbicidal rate of 90% or more (almost completely withered)) | 0 (Herbicidal rate of 5% or less (almost no effect)) | 3 (Herbicidal rate of 40% or more and less than 70%) | 5 (Herbicidal rate of 90% or more (almost completely withered)) | 5 (Herbicidal rate of 90% or more (almost completely withered)) | 0 (Herbicidal rate of 5% or less (almost no effect)) | 5 (Herbicidal rate of 90% or more (almost completely withered)) | 1 (Herbicidal rate of 5% or more and less than 20%) | 3 (Herbicidal rate of 40% or more and less than 70%) | 5 (Herbicidal rate of 90% or more (almost completely withered)) | 5 (Herbicidal rate of 90% or more (almost completely withered)) | 5 (Herbicidal rate of 90% or more (almost completely withered)) | 4 (Herbicidal rate of 70% or more and less than 90%) | 4 (Herbicidal rate of 70% or more and less than 90%) | 4 (Herbicidal rate of 70% or more and less than 90%)
Cc1nn(C)c(=O)c(-c2c(-c3ccc(OC(C)C)cc3)sc3ccc(F)cc23)c1O [2-034] | 2 (Herbicidal rate of 20% or more and less than 40%) | 5 (Herbicidal rate of 90% or more (almost completely withered)) | 0 (Herbicidal rate of 5% or less (almost no effect)) | 0 (Herbicidal rate of 5% or less (almost no effect)) | 5 (Herbicidal rate of 90% or more (almost completely withered)) | 4 (Herbicidal rate of 70% or more and less than 90%) | 0 (Herbicidal rate of 5% or less (almost no effect)) | 5 (Herbicidal rate of 90% or more (almost completely withered)) | 1 (Herbicidal rate of 5% or more and less than 20%) | 3 (Herbicidal rate of 40% or more and less than 70%) | 5 (Herbicidal rate of 90% or more (almost completely withered)) | 5 (Herbicidal rate of 90% or more (almost completely withered)) | 5 (Herbicidal rate of 90% or more (almost completely withered)) | 4 (Herbicidal rate of 70% or more and less than 90%) | 4 (Herbicidal rate of 70% or more and less than 90%) | 2 (Herbicidal rate of 20% or more and less than 40%)
CCCCOc1ccc(-c2sc3ccc(F)cc3c2-c2c(O)c(C)nn(C)c2=O)cc1 [2-036] | 0 (Herbicidal rate of 5% or less (almost no effect)) | 5 (Herbicidal rate of 90% or more (almost completely withered)) | 0 (Herbicidal rate of 5% or less (almost no effect)) | 3 (Herbicidal rate of 40% or more and less than 70%) | 5 (Herbicidal rate of 90% or more (almost completely withered)) | 4 (Herbicidal rate of 70% or more and less than 90%) | 0 (Herbicidal rate of 5% or less (almost no effect)) | 4 (Herbicidal rate of 70% or more and less than 90%) | 0 (Herbicidal rate of 5% or less (almost no effect)) | 4 (Herbicidal rate of 70% or more and less than 90%) | 5 (Herbicidal rate of 90% or more (almost completely withered)) | 5 (Herbicidal rate of 90% or more (almost completely withered)) | 5 (Herbicidal rate of 90% or more (almost completely withered)) | 4 (Herbicidal rate of 70% or more and less than 90%) | 4 (Herbicidal rate of 70% or more and less than 90%) | 4 (Herbicidal rate of 70% or more and less than 90%)
CCCC(=O)Oc1c(C)nn(C)c(=O)c1-c1c(-c2ccc(OC(F)(F)F)cc2)sc2ccc(F)cc12 [2-046] | 3 (Herbicidal rate of 40% or more and less than 70%) | 5 (Herbicidal rate of 90% or more (almost completely withered)) | 0 (Herbicidal rate of 5% or less (almost no effect)) | 3 (Herbicidal rate of 40% or more and less than 70%) | 5 (Herbicidal rate of 90% or more (almost completely withered)) | 3 (Herbicidal rate of 40% or more and less than 70%) | 0 (Herbicidal rate of 5% or less (almost no effect)) | 0 (Herbicidal rate of 5% or less (almost no effect)) | 1 (Herbicidal rate of 5% or more and less than 20%) | 0 (Herbicidal rate of 5% or less (almost no effect)) | 5 (Herbicidal rate of 90% or more (almost completely withered)) | 5 (Herbicidal rate of 90% or more (almost completely withered)) | 5 (Herbicidal rate of 90% or more (almost completely withered)) | 4 (Herbicidal rate of 70% or more and less than 90%) | 0 (Herbicidal rate of 5% or less (almost no effect)) | 3 (Herbicidal rate of 40% or more and less than 70%)
Cc1nn(C)c(=O)c(-c2c(-c3ccc(OCCF)cc3)sc3ccc(F)cc23)c1O [2-047] | 5 (Herbicidal rate of 90% or more (almost completely withered)) | 5 (Herbicidal rate of 90% or more (almost completely withered)) | 2 (Herbicidal rate of 20% or more and less than 40%) | 4 (Herbicidal rate of 70% or more and less than 90%) | 5 (Herbicidal rate of 90% or more (almost completely withered)) | 5 (Herbicidal rate of 90% or more (almost completely withered)) | 0 (Herbicidal rate of 5% or less (almost no effect)) | 4 (Herbicidal rate of 70% or more and less than 90%) | 0 (Herbicidal rate of 5% or less (almost no effect)) | 3 (Herbicidal rate of 40% or more and less than 70%) | 5 (Herbicidal rate of 90% or more (almost completely withered)) | 5 (Herbicidal rate of 90% or more (almost completely withered)) | 5 (Herbicidal rate of 90% or more (almost completely withered)) | 3 (Herbicidal rate of 40% or more and less than 70%) | 4 (Herbicidal rate of 70% or more and less than 90%) | 2 (Herbicidal rate of 20% or more and less than 40%)
